Tests used:
Assay in all cases: Cell viability assay (CellTiter-Glo), GI50, 3-day treatment
Format in all cases: cell-based
[1] = test system: SNUC5; conditions: 72 h; SNUC5 (BRAF^V600E CRC); 50% growth inhibition after 3 days of treatment compared to control; read-out: GI50 concentrations
Protocol: (§1) To assess the growth/survival response of cell lines to single or combinatorial drug treatments, we used CellTiter-Glo cell viability assay (Promega; cat #G7571). Cell culture and luminescence readouts were performed in 96- and 384-well plates after 3-day treatments. GI50 corresponds to the concentration of a given drug that causes 50% inhibition of cell growth (GI50). The effects of drug combinations on cell growth were assessed by calculating fold change in VEM-sensitivity and combination index (C.I.) that were experimentally measured from ≥9 individual datapoints around drugs' GI50, i.e. at GI50, 0.5×GI50, 2×GI50 concentrations of each drug per drug combination experiment. To address the particular effects of some drug treatments on some cell lines, the choice of experimental datapoints centered around drugs' GI50 effects was adjusted by including individual datapoints ranging from ≥GI25 to ≤GI75, leading to calculate fold change in VEM-sensitivity and combination index (C.I.) from 12 to 20 individual datapoints, as previously explained (7).

[2] = test system: KM20; conditions: 72 h; KM20 (BRAF^V600E CRC); 50% growth inhibition after 3 days of treatment compared to control; read-out: GI50 concentrations
Protocol: as §1

[3] = test system: LIM2405; conditions: 72 h; LIM2405 (BRAF^V600E CRC); 50% growth inhibition after 3 days of treatment compared to control; read-out: GI50 concentrations
Protocol: as §1

[4] = test system: OUMS23; conditions: OUMS-23, 72 h; OUMS23 (CRC MAP3K8^amp); 50% growth inhibition after 3 days of treatment compared to control; read-out: GI50 concentrations
Protocol: as §1

[5] = test system: Sk-Mel-28; conditions: Homo sapiens, 72 h; Sk-Mel-28 (BRAF^V600E melanoma); 50% growth inhibition after 3 days of treatment compared to control; read-out: GI50 concentrations
Protocol: as §1

[6] = test system: HT29; conditions: Homo sapiens, HT-29, 72 h; HT29 (BRAF^V600E CRC); 50% growth inhibition after 3 days of treatment compared to control; read-out: GI50 concentrations
Protocol: as §1

[7] = test system: A375; conditions: Homo sapiens, A-375, 72 h; A375 (BRAF^V600E melanoma); 50% growth inhibition after 3 days of treatment compared to control; read-out: GI50 concentrations
Protocol: as §1

[8] = test system: RKO1; conditions: 72 h; RKO1 (BRAF^V600E CRC); 50% growth inhibition after 3 days of treatment compared to control; read-out: GI50 concentrations
Protocol: as §1

[9] = test system: WiDr; conditions: Homo sapiens, 72 h; WiDr (BRAF^V600E CRC); 50% growth inhibition after 3 days of treatment compared to control; read-out: GI50 concentrations
Protocol: as §1

[10] = test system: VACO432; conditions: 72 h; VACO432 (BRAF^V600E CRC); 50% growth inhibition after 3 days of treatment compared to control; read-out: GI50 concentrations
Protocol: as §1

`CCCS(=O)(=O)Nc1ccc(F)c(C(=O)c2c[nH]c3ncc(-c4ccc(Cl)cc4)cc23)c1F` [vemurafenib, N-[3-[5-(4-chlorophenyl)-1H-pyrrolo[2,3-b]pyridine-3-carbonyl]-2,4-difluorophenyl]propane-1-sulfonamide] was tested, and the GI50 [1] was 2250 nM, the GI50 [2] was 2000 nM and the GI50 [3] was 150 nM. For the same compound, the GI50 [4] was 1400 nM, the GI50 [5] was 150 nM and the GI50 [6] was 1750 nM. It also gave a GI50 [7] of 10 nM, a GI50 [8] of 1700 nM and a GI50 [9] of 1500 nM. It also gave a GI50 [10] of 1150 nM.
